What was measured:
MDA-MB-435 cells [1] = assay: Matrigel invasion of breast cancer cells; type: cell-based
Procedure: (§1) The breast cancer cells such as the MDA-MB-231 cells were obtained from Korean Cell Line Bank (Seoul, Korea), and the MDA-MB-435 cells were provided by J. H. Lee (Asan Medical Center, Seoul, Korea). These cells were cultured in an RPMI 1640 medium (Invitrogen) containing 10% FBS (Life Technologies, Inc.), 1% penicillin (50 units/mL), and an antibiotic antimycotic solution (Life Technologies, Inc.) at 37° C. under a 5% CO2 condition.
(§2) To detect the invasion of breast cancer cells according to the treatment of the compound of the present invention, BioCoat Matrigel Invasion Chambers (BD Biosciences, Bedford, Mass.) were used. 5×10^4 of the breast cancer cells were harvested with trypsin-EDTA, resuspended in 0.5% serum-containing RPMI 1640, and transferred to Matrigel inserts. Five percent serum-containing RPMI 1640 was added to the lower chamber, and the cells were cultured at 37° C. for 36 hours. Each filter was fixed with methanol for 3 minutes, and stained with hematoxylin and eosin for 10 minutes. The invasiveness of the cancer cells was quantified by cell counts on the lower side of the filter under an optical microscope (magnification, 200×). In each analysis, 6 fields were quantified. Each sample was analyzed twice, and the analysis was repeated three times.

MDA-MB-231 cells [2] = assay: Matrigel invasion of breast cancer cells; type: cell-based
Procedure: as §1, §2

MDA-MB-435 cells [3] = assay: IL-8 expression (RT-PCR); type: cell-based
Procedure: as §1
(§3) To confirm the IL-8 expression according to the treatment of the compound of the present invention, total RNA was isolated from cells using Easy Blue (Intron, Sungnam, Korea), and quantified by absorbance at 260 nm. Complementary DNA (cDNA) was synthesized with the RNA (1.25 μg) through reverse transcription using a polymerase chain reaction (PCR) technique. An expression level was determined using primers specifically binding to IL-8 and glyceraldehyde-3-phosphate dehydrogenase (GAPDH).

MDA-MB-231 cells [4] = assay: IL-8 expression (RT-PCR); type: cell-based
Procedure: as §1, §3

[5] = tested on: severe asthma-induced mice; assay: OVA-induced asthma mice: AHR and IL-4; type: in vivo; details: pre-treated at 10 μM (so in the source)
Description: Mast cells play a pivotal role in the initial reaction to asthma, and when an allergen enters the body from the outside through an airway, the mast cells are activated, thereby secreting various cytokines (interleukin-4 and interleukin-13). Due to the cytokines, the influx of inflammatory cells, the generation of mucus and the airway contraction occur. The inventors used 7-week-old (18 to 20 g) female BALB/c mice provided by Orient (Seoungnam, Korea) for the experiment to confirm the antiasthma effect, and then the asthma was induced in the mice. […] On the 24th day of the initial sensitization, airway hyperresponsiveness (AHR) was detected, and on the 25th day, the mice were dissected to observe asthma phenotypes, for example, inflammatory cytokine IL-4 expression and the influx of inflammatory cells (neutrophils). […] On the 23rd day of the initial sensitization, AHR was detected, and on the 24th day, the mice were dissected to observe a severe asthma phenotype, for example, the influx of the inflammatory cells (neutrophils). […] The AHR was analyzed using an enhanced pause as the indicator of the asthma phenomenon. Bronchoalveolar lavage fluid cell counts were quantified by counting cells under an optical microscope (magnification, 200×). In each analysis, 4 fields were subjected to counting, each sample was analyzed twice, and the analysis was repeated three times.

BLT1 = target: T1, BLT1 (Homo sapiens, UniProt Q15722); assay: LTB4-induced chemotactic motility, Transwell, CHO-BLT1 cells; type: cell-based; details: 10 μM pre-treatment, LTB4 10 nM
T1 construct: expressed in transfected cells; host or cells: CHO cells stably expressing BLT1 (CHO-BLT1)
T1 sequence (Q15722 whole entry, species assumed): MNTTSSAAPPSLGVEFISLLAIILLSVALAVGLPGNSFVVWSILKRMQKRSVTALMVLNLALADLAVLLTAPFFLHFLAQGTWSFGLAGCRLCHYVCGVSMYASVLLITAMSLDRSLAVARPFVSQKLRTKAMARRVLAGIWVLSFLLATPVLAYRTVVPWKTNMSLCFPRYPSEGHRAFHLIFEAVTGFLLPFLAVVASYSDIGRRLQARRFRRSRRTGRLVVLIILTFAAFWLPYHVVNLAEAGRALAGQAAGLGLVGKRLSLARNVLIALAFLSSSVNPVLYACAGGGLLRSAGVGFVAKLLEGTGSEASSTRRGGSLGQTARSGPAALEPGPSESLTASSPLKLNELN
Procedure: Chemotactic motility was analyzed using a Transwell chamber including a polycarbonate filter (8-μm pore size, Corning Costar) with a 6.5-mm diameter. Specifically, the lower surface of the filter was coated with 10 μg/mL fibronectin in a serum-free RPMI 1640 medium at 37° C. for 1 hour. The experiment was performed by placing the filter dried and coated with RPMI 1640 media containing various amounts of LTB4 in the lower wells of the Transwell chamber, and loading CHO cells stably expressing BLT1 and BLT2 into the upper wells containing serum-free RPMI 1640 media finally at 2×10^4 cells/100 μL. To evaluate the effect of inhibitors, the cells were pre-treated with each inhibitor for 30 minutes before dispensing. After the cells were cultured at 37° C. in 5% CO2 for 3 hours, the filters were fixed with methanol for 3 minutes, and stained with hematoxylin and eosin for 10 minutes. In the experiment, the cells were BLT2-expressing cells (CHO-BLT2 cells) and BLT1-expressing cells (CHO-BLT1 cells), and LY255283 and U75302 were used as positive controls for each type of the cells, and BLT2 ligand LTB4, (300 nM), BLT1 ligand LTB4 (10 nM), and lysophosphatidic acid (LPA; 100 nM) were used as comparative controls. The chemotactic motility was quantitatively analyzed by counting the cells on the lower side of the filter under an optical microscope (magnification, 200×). For each analysis, 6 fields were subjected to counting, each sample was analyzed twice, and the analysis was repeated three times.

CCCCC(=O)N(CC#Cc1ccc(C(=O)N2CCN(C(C)C)CC2)cc1)c1ccccc1 [LMT-696, N-(3-(4-(4-isopropylpiperazine-1-carbonyl)phenyl)prop-2-ynyl)-N-phenylpentaneamide]
cancer cell invasion inhibited (MDA-MB-435 cells [1]): 56%
cancer cell invasion inhibited (MDA-MB-231 cells [2]): 70%
IL-8 expression level (MDA-MB-435 cells [3]): significantly inhibited
IL-8 expression level (MDA-MB-231 cells [4]): significantly inhibited
AHR reduced ([5]; airway constrictor 50 mg/ml): 70%
generation of IL-4 reduced ([5]; cells isolated from the abdominal cavity of the mice): 70%
inhibitory effect on chemotactic motility (BLT1): did not exhibit the inhibitory effect
